From the supplement of paper PMC10307832

Assays:
Test in all cases: relative viability (nuclei count vs DMSO), 5 days (fraction); higher = more cells survive
Neratinib + Phenformin = compound: CCOc1cc2ncc(C#N)c(Nc3ccc(OCc4ccccn4)c(Cl)c3)c2cc1NC(=O)/C=C/CN(C)C [Neratinib] + N=C(N)NC(=N)NCCc1ccccc1 [Phenformin] (partner 250 µM)
Summary of the method: (§1)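 Each reported value is a median over duplicate plates. It expresses relative viability: treated-well nuclei count divided by vehicle-well nuclei count. Lung cancer cell lines in 1536-well plates were dosed by pin tool a day after seeding, alone with one drug or with a fixed anchor-drug dose plus five library-drug doses (not always all listed) in √10 steps, and nuclei were counted after 5 days.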

Neratinib + Trametinib = compound: CCOc1cc2ncc(C#N)c(Nc3ccc(OCc4ccccn4)c(Cl)c3)c2cc1NC(=O)/C=C/CN(C)C [Neratinib] + CC(=O)Nc1cccc(-n2c(=O)n(C3CC3)c(=O)c3c(Nc4ccc(I)cc4F)n(C)c(=O)c(C)c32)c1 [Trametinib] (partner 0.02 µM)
Summary of the method: as §1

Neratinib + Olaparib = compound: CCOc1cc2ncc(C#N)c(Nc3ccc(OCc4ccccn4)c(Cl)c3)c2cc1NC(=O)/C=C/CN(C)C [Neratinib] + O=C(c1cc(Cc2n[nH]c(=O)c3ccccc23)ccc1F)N1CCN(C(=O)C2CC2)CC1 [Olaparib] (partner 8 µM)
Summary of the method: as §1

Neratinib = compound: CCOc1cc2ncc(C#N)c(Nc3ccc(OCc4ccccn4)c(Cl)c3)c2cc1NC(=O)/C=C/CN(C)C [Neratinib]
Summary of the method: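 In 1536-well plates, lung cancer cell lines rested overnight at 37 °C before five library-drug doses (not always all listed), √10 apart, were pinned onto vehicle-anchored plates. Nuclei were counted with MetaXpress from 4× Hoechst images taken after 5 days without medium change. Viability compares treated-well with vehicle-well nuclei as a median over plates, and plates needed control CV below 25% plus at least one doubling to pass.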

| Cell Line | relative viability (Neratinib + Phenformin; first compound 0.01 µM) | relative viability (Neratinib + Phenformin; first compound 0.03162 µM) | relative viability (Neratinib + Phenformin; first compound 0.1 µM) | relative viability (Neratinib + Phenformin; first compound 0.3162 µM) | relative viability (Neratinib + Phenformin; first compound 1 µM) | relative viability (Neratinib + Trametinib; first compound 0.01 µM) | relative viability (Neratinib + Trametinib; first compound 0.03162 µM) | relative viability (Neratinib + Trametinib; first compound 0.1 µM) | relative viability (Neratinib + Trametinib; first compound 1 µM) | relative viability (Neratinib + Olaparib; first compound 0.01 µM) | relative viability (Neratinib + Olaparib; first compound 0.03162 µM) | relative viability (Neratinib + Olaparib; first compound 0.1 µM) | relative viability (Neratinib + Olaparib; first compound 1 µM) | relative viability (Neratinib; 0.01 µM) | relative viability (Neratinib; 0.03162 µM) | relative viability (Neratinib; 0.1 µM) | relative viability (Neratinib; 0.3162 µM) | relative viability (Neratinib; 1 µM) | relative viability (Neratinib + Trametinib; first compound 0.3162 µM) | relative viability (Neratinib + Olaparib; first compound 0.3162 µM) |
| --- | --- | --- | --- | --- | --- | --- | --- | --- | --- | --- | --- | --- | --- | --- | --- | --- | --- | --- | --- | --- |
| LCLC-97TM1 | 0.461 | 0.462 | 0.379 | 0.29 | 0.177 | 0.187 | 0.193 | 0.192 | 0.112 | 0.31 | 0.437 | 0.329 | 0.234 | 1.05 | 1.08 | 0.955 | 0.689 | 0.696 | – | – |
| HARA | 0.387 | 0.578 | 0.385 | 0.318 | 0.215 | 0.545 | 0.786 | 0.516 | 0.303 | 0.811 | – | 0.778 | 0.48 | 1.02 | 1.05 | 0.668 | 0.663 | 0.644 | – | – |
| HCC-78 | 0.724 | 0.731 | 0.624 | 0.545 | 0.296 | 0.901 | 0.668 | 0.678 | 0.296 | 0.996 | 0.87 | 0.817 | 0.396 | 1.07 | 1.03 | 0.892 | 0.87 | 0.475 | 0.731 | 0.798 |
| NCI-H1666 | 0.616 | 0.573 | 0.519 | 0.54 | 0.593 | 0.868 | 0.815 | 0.712 | 0.78 | 0.751 | 0.806 | 0.675 | 0.806 | 1 | 1.03 | 0.884 | 0.76 | 0.78 | 0.637 | 0.666 |
| NCI-H2405 | 0.421 | 0.393 | 0.414 | 0.33 | 0.359 | 0.682 | 0.612 | – | 0.513 | 0.892 | 0.93 | 0.85 | 0.619 | 1.06 | 1.07 | 0.989 | 0.98 | 0.739 | 0.465 | 0.908 |
| RERF-LC-KJ | 0.427 | 0.405 | 0.385 | 0.318 | 0.353 | 0.844 | 0.889 | 0.785 | 0.504 | 0.925 | 0.911 | 0.828 | 0.468 | 1 | 0.998 | 0.86 | 0.806 | 0.556 | 0.694 | 0.848 |
| NCI-H2085 | 0.795 | 0.683 | 0.708 | 0.567 | 0.437 | 0.605 | 0.698 | 0.545 | 0.315 | 0.755 | 0.8 | 0.729 | 0.639 | 0.977 | 1.01 | 0.871 | 0.891 | 0.814 | 0.397 | 0.644 |
| 201T | 0.484 | 0.424 | 0.44 | 0.379 | 0.42 | 0.755 | – | 0.688 | 0.707 | 0.811 | 0.813 | 0.737 | 0.838 | 1.01 | 0.996 | 0.929 | 1.02 | 0.934 | 0.707 | 0.782 |
| NCI-H1915 | 0.383 | 0.384 | 0.228 | 0.354 | 0.39 | 0.32 | 0.314 | 0.294 | 0.23 | 0.232 | – | 0.221 | 0.252 | 1.07 | 1.03 | 0.972 | 0.916 | 1.05 | 0.299 | 0.245 |
| NCI-H2023 | 0.434 | 0.451 | 0.362 | 0.323 | 0.298 | 0.594 | 0.491 | 0.371 | 0.399 | 0.448 | 0.415 | 0.365 | 0.386 | 0.997 | 0.824 | – | 0.881 | 0.707 | 0.43 | 0.42 |
| BEN | 0.259 | 0.279 | 0.22 | 0.251 | 0.248 | 1.02 | 1.2 | 1 | 0.792 | 1.15 | 1.21 | 0.863 | 0.816 | – | 1.18 | 1.03 | 0.849 | 0.753 | 0.883 | 0.932 |
| EBC-1 | – | – | – | – | – | – | – | – | – | 0.774 | 0.668 | 0.669 | 0.544 | 1.02 | 1.12 | 0.872 | 0.993 | 0.813 | – | 0.695 |
| ABC-1 | 0.211 | 0.236 | 0.285 | 0.231 | 0.215 | – | – | – | – | 0.835 | 0.979 | 0.946 | 0.489 | 1.06 | 1.06 | 0.898 | 0.777 | 0.364 | – | 0.631 |
| NCI-H1563 | 0.727 | 0.643 | 0.568 | 0.628 | 0.409 | – | – | – | – | – | – | – | – | 1.03 | 1.07 | 0.915 | 0.864 | 0.706 | – | – |
| NCI-H1299 | – | – | – | – | – | – | – | – | – | 0.954 | 0.983 | 0.85 | 0.974 | 1.01 | – | 0.89 | 1.03 | 1.06 | – | 0.99 |
| A549 | 0.162 | 0.189 | – | 0.137 | 0.191 | – | – | – | – | 0.356 | 0.555 | 0.276 | 0.176 | 1.06 | 1.07 | 0.856 | 0.911 | 0.516 | – | 0.296 |
| IA-LM | – | – | – | – | – | – | – | – | – | 0.985 | 0.82 | 0.715 | 0.517 | 1.03 | 1.04 | 0.943 | 0.881 | 0.562 | – | 0.838 |
| Calu-6 | – | – | – | – | – | – | – | – | – | 0.507 | 0.643 | 0.568 | 0.369 | 1.06 | – | 0.992 | 0.955 | 0.835 | – | 0.518 |
